Values after ≈ are worked out from the molar mass of the structure shown.
How the values were obtained:
Assay type in all cases: functional, cell-based
HeLa = assay: Cytotoxicity against human HeLa cells by MTT assay
A549 = assay: Cytotoxicity against human A549 cells by MTT assay
K562 = assay: Cytotoxicity against human K562 cells by MTT assay

Row | SMILES | IC50 (HeLa) | IC50 (A549) | IC50 (K562)
1 | C=CCc1ccc(O)c(-c2ccc(OC)c(CC=C)c2)c1 [METHYLHONOKIOL] | > 5 µg/mL | > 5 µg/mL | > 5 µg/mL
2 | C=CCc1cc(-c2cc(/C=C/C=O)ccc2O)ccc1OC [4'-METHOXYMAGNALEDEHYDE B] | > 5 µg/mL | > 5 µg/mL | > 5 µg/mL
3 | C=CCc1ccc(O)c(-c2cc(CC=C)ccc2O)c1 [MAGNOLOL] | > 5 µg/mL | > 5 µg/mL | > 5 µg/mL
4 | C=CCc1cc(-c2cc(C=O)ccc2O)ccc1OC | > 5 µg/mL | > 5 µg/mL | > 5 µg/mL
5 | COc1cc(/C=C/CO)cc(OC)c1O[C@@H]1O[C@H](CO)[C@@H](O)[C@H](O)[C@H]1O [SYRINGIN] | > 5 µg/mL | > 5 µg/mL | > 5 µg/mL
6 | C=CCc1cc(-c2cc(CC(O)CO)ccc2O)ccc1O (stereo unspecified) [MAGNOLIGNAN] | > 5 µg/mL | > 5 µg/mL | > 5 µg/mL
7 | C=CCc1ccc(O)c(-c2ccc(O)c(CC=C)c2)c1 [HONOKIOL] | > 5 µg/mL | > 5 µg/mL | > 5 µg/mL
8 | COc1ccc(-c2cc(/C=C/C=O)ccc2O)cc1/C=C/C=O | 3.9 µg/mL (≈ 12.6 µM) | 1.5 µg/mL (≈ 4.86 µM) | 3.7 µg/mL (≈ 12 µM)
9 | COc1cc(/C=C/C=O)cc(OC)c1O[C@@H]1O[C@H](CO)[C@@H](O)[C@H](O)[C@H]1O [SINAPALDEHYDE GLUCOSIDE] | > 5 µg/mL | > 5 µg/mL | > 5 µg/mL
10 | C=CCc1cc(-c2cc(C=O)ccc2O)ccc1O [MAGNALEDEHYDE E] | > 5 µg/mL | > 5 µg/mL | > 5 µg/mL
11 | COc1cccc2c1C(=O)c1c(O)c3c(c(O)c1C2=O)C[C@@](O)(C(=O)CO)C[C@@H]3O[C@H]1C[C@H](N)[C@H](O)[C@H](C)O1 [DOXORUBICIN] | 0.8 µg/mL (≈ 1.47 µM) | 1.2 µg/mL (≈ 2.21 µM) | 1.41 µg/mL (≈ 2.59 µM)
12 | C=CCc1cc(-c2cc(/C=C/C=O)ccc2O)ccc1O [MAGNALEDEHYDE B] | > 5 µg/mL | > 5 µg/mL | > 5 µg/mL

Reference: ChEMBL document CHEMBL1141318, “Cytotoxic lignans from the stem bark of Magnolia officinalis” (J Nat Prod, 2007)
